Results from publication PMC2662524 (Biochemistry, 2008).

Legend:
cytochrome P450eryF [1] = target: T1, cytochrome P450eryF (Saccharopolyspora erythraea, UniProt Q00441); experiment: lifetime FRET from F7GA to heme; type: binding
cytochrome P450eryF [2] = target: T1, cytochrome P450eryF; experiment: ligand-induced spin shift; type: binding

T1 sequence (Q00441 whole entry): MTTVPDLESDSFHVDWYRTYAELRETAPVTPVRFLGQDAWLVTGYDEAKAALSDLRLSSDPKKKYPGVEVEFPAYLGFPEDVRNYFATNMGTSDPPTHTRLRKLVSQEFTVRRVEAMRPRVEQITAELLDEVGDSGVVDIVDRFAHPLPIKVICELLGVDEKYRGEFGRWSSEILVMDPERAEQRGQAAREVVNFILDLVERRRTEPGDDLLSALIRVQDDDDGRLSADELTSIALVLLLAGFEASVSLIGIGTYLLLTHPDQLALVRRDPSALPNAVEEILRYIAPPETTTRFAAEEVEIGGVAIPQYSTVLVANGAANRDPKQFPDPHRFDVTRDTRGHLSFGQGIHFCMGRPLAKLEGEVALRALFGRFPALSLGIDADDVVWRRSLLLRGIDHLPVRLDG

Row | Compound | Kd (cytochrome P450eryF [1]) [µM] | Kd (cytochrome P450eryF [2]) [µM]
1 | CCCCNc1ccc2c3c(cccc13)C(=O)N(CCCC)C2=O [F7GA, 2-butyl-6-(butylamino)-1H-benzo[de]isoquinoline-1,3(2H)-dione] | 0.14 ± 0.06 | 
2 | CCN(CC)c1ccc2nc3c4ccccc4c(=O)cc-3oc2c1 [Nile Red] |  | 3.2 ± 0.2
